Results as given in patent US9556232B2, “Anti-angiogenic molecules, nanostructures and uses thereof” (Northwestern University, priority 2013, dated 2017).
“Also recorded” adds a separate entry of the source.

Tests used:
[1] = Critical assembly concentration determination by nile red incorporation; format: physicochemical; settings: in PBS, nile red blueshift in peak emission
Protocol: Critical Assembly Concentration Determination by Nile Red Incorporation.
MMPA, MMPep, or ScramPA solutions ranging from 100 nM to 200 μM concentration in PBS were made from stock solutions and NR dissolved in ethanol was diluted 200-fold into solutions to a final concentration of 500 nM. Using a NanoLogHJ spectrofluorometer, samples were excited at 550 nm and spectra were obtained between from 580 nm-750 nm. Blueshift was plotted against concentration to determine the critical assembly concentration.

HUVECs [2] = test: Flow cytometry and confocal microscopy to assess PA binding to HUVECs; format: cell-based, human
Protocol: Flow Cytometry and Confocal Microscopy to Assess PA Binding.
Stock fluorescent PA and peptide solutions were made by dissolving FITC-labeled molecules in PBS at a concentration of 200 μM (assuming peptide content of 90%). Stock fluorescent solutions were then mixed in equal volumes with 1 mM stock solutions of non-fluorescent PA or peptide solution and allowed to sit overnight at room temperature to make working solutions. Subconfluent human umbilical vein endothelial cells (HUVECs) were incubated for 2 hr in starvation media before detaching with 0.05% trypsin/EDTA. Cells were then spun down to remove trypsin/EDTA and were re-suspended in starvation media at 250,000/mL. Working peptide and PA solutions then added to cell suspensions such that the final concentration corresponded to 10 μM non-fluorescent molecule. After incubating at 37° C. for 30 mins, cells were spun down and resuspended in Hank's balanced salt solution (HBSS) twice. Fluorescence signal of each cell was quantified using a LSRFortessa cell analyzer (BD Biosciences). Cells were also plated on poly-d-lysine coated glass coverslips, fixed with 4% paraformaldehyde, and embedded in mounting media for imaging using an AIR laser scanning confocal microscope (Nikon). Machine parameters were kept constant for all samples in both confocal microscopy and flow cytometry experiments.

HUVECs [3] = test: Assessment of cell adhesion on fibronectin (PicoGreen); format: cell-based, human; settings: concentration not given
Protocol: Assessment of Cell Adhesion on Fibronectin.
The effect of peptide and PAs on HUVEC adhesion was assessed. Fibronectin from human plasma (Sigma) was dissolved in sterile MilliQ water and was added to tissue culture-treated 96 well plates at 5 μg/cm2, which were then left to dry overnight at room temperature in a sterile laminar flow hood. Coated plates were stored at 4° C. and warmed to 37° C. prior to use. Subconfluent HUVECs were incubated for 2 hr in starvation media (EndoGRO basal media from Millipore supplemented with 0.5% fetal bovine serum and 1× penicillin-streptomycin from Gibco) before detaching with 0.05% trypsin/EDTA. Cells were then spun down to remove trypsin/EDTA and were re-suspended in PBS containing peptide or PA molecules. Cells were incubated in treatment for 30 min at 37° C. and then plated at 15,000 cells/well. After 45 mins, wells were washed once with PBS to detach loosely adhered cells. A PicoGreen assay (Invitrogen) was used to quantify number of cells in each well. Cell counts were normalized to that obtained in wells with no treatment. Statistical analysis was performed in GraphPad Prism software using one-way analysis of variance (ANOVA) with a Bonferroni's Multiple Comparisons post-test comparing all pairs of columns. For all treatment groups, n=4.

HUVECs [4] = test: Assessment of cell migration on fibronectin (live-cell imaging); format: cell-based, human; settings: HUVECs on FN-coated glass, bFGF stimulus, 10 μM
Protocol: Assessment of Cell Migration on Fibronectin.
Fibronectin from human plasma was coated onto tissue culture-treated 4-chamber glass-bottom petri dishes (In Vitro Scientific) at 7 μg/cm2 as previously described. Subconfluent HUVECs were incubated for 2 hr in starvation media before detaching with 0.05% trypsin/EDTA. Cells were then spun down to remove trypsin/EDTA, re-suspended in starvation media, and plated onto glass-bottom petri dishes at a concentration of 4000 cells per chamber. After cells attached (approximately 1 hr at 37° C.)., the media was aspirated and replaced with starvation media containing […] basic fibroblast growth factor (bFGF) and 10 μM MMPA, MMPep, or Scram PA. Live-cell imaging was performed on a Nikon BioStation IM at 37° C., and cell migration was quantified manually using a plugin to track the location of the cell nucleus every 30 mins in ImageJ software. ANOVA with a Dunnett's Multiple Comparisons post-test of each treatment condition against control was performed using GraphPad Prism software. For control, MMPA, MMPep, and ScramPA, n=56, 54, 31, and 42 respectively.

HUVECs [5] = test: Assay of angiogenesis in vitro by tube formation; format: cell-based, human; settings: HUVECs on matrigel, imaged 5 hrs after addition of treatment
Protocol: Assay of Angiogenesis In Vitro by Tube Formation.
Wells of a 96-well plate were coated with ECMatrix solution, and 5×10^3 HUVECs were plated in triplicate wells in a volume of 50 μL of endothelial growth medium (EGM) containing 0.5% FBS with 50 ng/mL bFGF for 2 hours. MMPA, MMPep, ScramPA treatments at respective dosages were added to the wells for 5 hours. Tube formation was evaluated by phase-contrast microscopy using an Olympus IX-70 microscope (100× magnification) connected to a Diagnostic Instruments Spot RT Camera. Experiments were repeated independently three times.

[6] = tested on: chicken chorioallantoic membrane (CAM); test: Characterization of angiogenesis in vivo by CAM assay; settings: 1 mM in PBS from filter paper circles, embryonic day 5, 21 hrs and 42 hrs
Protocol: Characterization of Angiogenesis In Vivo by CAM Assay.
In vivo assessment of the anti-angiogenic potential of PAs and peptide was performed using the chicken chorioallantoic membrane (CAM). In this well-established CAM assay, angiogenesis of the extraembryonic allantois was measured at several time points after treatment with PAs or peptide. Fertilized chicken eggs (Sunnyside Hatchery) were received and cultured in a temperature controlled, humidified egg incubator. On embryonic day 3, eggs were cracked into 100 mm sterile petri dishes without breaking the yolk sac and were transferred to a water-jacketed humidified CO2 incubator set to 37° C. On embryonic day 5, 5 μL of treatment (PA, peptide, or scrambled PA dissolved in PBS at 1 mM) or control (PBS) solutions were deposited onto autoclaved filter paper circles ¼″ in diameter. Solution-soaked filter paper circles were placed on top of the CAM and digital images were captured using a Nikon stereomicroscope. Vessel density was quantified by counting the number of vessels intersecting the circumference of filter paper circles and is expressed relative to the initial time point. ANOVA with a Dunnett's Multiple Comparisons post-test of each treatment condition against control was performed using GraphPad Prism software. A minimum of n=5 samples was analyzed for each treatment condition at each time point.

**Q.** Which “critical aggregation assembly concentration (CAC)” value [1] does the source give for “MMPep: 15-residue peptide: maspin g-helix sequence plus two residues on either end, EDESTGLEKIEKQLN, synthesized as previously reported [reference compound]” here?
**A.** The value was greater than 200 µM.

**Q.** What about the “median FITC intensity per cell” value (HUVECs [2]; FACS, HUVECs, FITC-labeled molecule mixed with non-fluorescent molecule, 10 μM, 30 mins 37° C.) of the same substance?
**A.** The value was 2.6 times that of untreated control.

**Q.** And the “cell binding (FACS, HUVEC fluorescence)” value (HUVECs [2]; HUVECs treated with FITC-labeled PAs and peptide)?
**A.** Its value is “binds to cells significantly less effectively than PA nanostructures”.

**Q.** What about the “HUVEC adhesion to FN surface vs untreated controls” value (HUVECs [3]) of the same substance?
**A.** Its value is “do not show this effect; also recorded: unable to improve cell adhesion over untreated controls”.

**Q.** What about the “cell motility / migration vs PBS control” value (HUVECs [4]) of the same substance?
**A.** The value was “statistically less migratory (P<0.05); also recorded: significantly decrease cell motility over untreated controls”.

**Q.** What about the “average cell migration speed” value (HUVECs [4]; measured over at least 2 hrs and up to 8 hrs) of the same substance?
**A.** Its value is 0.30 μm/min.

**Q.** What about the “inhibition of tube formation” value (HUVECs [5]) of the same substance?
**A.** The value was “slightly effective at greater than 10 μM; also recorded: partially inhibited tube formation at higher concentrations (10 μM)”.

**Q.** And the “angiogenesis in CAM (vessels intersecting filter paper circumference, normalized to initial count) vs PBS control” value [6]?
**A.** The value was “present but is statistically insignificant”.
